Reference: ChEMBL document CHEMBL4507327 (2021)

Columns and labels:
[1] = target: Proto-oncogene tyrosine-protein kinase ROS (Homo sapiens, UniProt P08922); assay: Ros(ROS1PHY1) Takeda global kinase panel
[2] = target: Ribosomal protein S6 kinase alpha-4 (Homo sapiens, UniProt O75676); assay: MSK2(R6A4LGRJ) Takeda global kinase panel
[3] = target: Cyclin-dependent kinase 8 (Homo sapiens, UniProt P49336); assay: CDK8(CDK8CGS1) Takeda global kinase panel
[4] = target: Gamma-aminobutyric acid type B receptor subunit 1 (Homo sapiens) (UniProt Q9UBS5); assay: Inhibition of GABAB1A at compound concentration of 10.0 uM in the Eurofins-Panlabs radioligand binding assay (Eurofins_assay_228610); parameters: ligand concentration 4 nM; conditions: Compound concentration 10.0 uM
[5] = target: Mitogen-activated protein kinase 3 (Homo sapiens, UniProt P27361); assay: ERK1(MAP3LGY1) Takeda global kinase panel
[6] = target: Casein kinase I isoform alpha (Homo sapiens, UniProt P48729); assay: CK1alpha(C1A1PHY1) Takeda global kinase panel
[7] = target: Receptor-interacting serine/threonine-protein kinase 3 (Homo sapiens, UniProt Q9Y572); assay: RIPK3(RIP3IGRI) Takeda global kinase panel
SRSF protein kinase 2 = SRSF protein kinase 2 (Homo sapiens, UniProt P78362); assay: SRPK2(SRP2IGRL) Takeda global kinase panel
[8] = target: 3-phosphoinositide-dependent protein kinase 1 (Homo sapiens, UniProt O15530); assay: PDK1(PDP1LGA1) Takeda global kinase panel
[9] = target: GABA-A receptor; anion channel (Rattus norvegicus) (UniProt O09028+P15431+P18506+P18508+P19969+P20236+P23574+P23576+P28471+P28473+P30191+P62813+P63079+P63138+Q91ZM7+Q9ES14); assay: Inhibition of GABAA, Muscimol, Central at 10 µM in the Eurofins-Panlabs radioligand binding assay (Eurofins_assay_226500); assay type: protein-complex assay; conditions: Compound concentration 10.0 uM
[10] = target: Serine/threonine-protein kinase N1 (Homo sapiens, UniProt Q16512); assay: PKN1 [PRK1(PKN1LGY1)] Takeda global kinase panel
[11] = target: Glycogen synthase kinase-3 beta (Homo sapiens, UniProt P49841); assay: GSK3beta(GS3BLGM1) Takeda global kinase panel
[12] = target: cAMP-dependent protein kinase catalytic subunit PRKX (Homo sapiens, UniProt P51817); assay: PRKX(PRKXLGH5) Takeda global kinase panel
[13] = target: RAC-beta serine/threonine-protein kinase (Homo sapiens, UniProt P31751); assay: Akt2 [PKBbeta(AKT2CGY1)] Takeda global kinase panel
[14] = target: Hormonally up-regulated neu tumor-associated kinase (Homo sapiens, UniProt P57058); assay: HUNK(HUNKLGRN) Takeda global kinase panel
[15] = target: Dual specificity tyrosine-phosphorylation-regulated kinase 1A (Homo sapiens, UniProt Q13627); assay: DYRK1A(DY1ALGP1) Takeda global kinase panel
[16] = target: Uncharacterized serine/threonine-protein kinase SBK3 (Homo sapiens, UniProt P0C264); assay: SgK110(SG10LGF1) Takeda global kinase panel
[17] = target: Bone morphogenetic protein receptor type-1B (Homo sapiens, UniProt O00238); assay: BMPR1B(BM1BLGF1) Takeda global kinase panel
[18] = target: Cyclin-dependent kinase 14 (Homo sapiens, UniProt O94921); assay: PFTAIRE1(CD14CGS1) Takeda global kinase panel
[19] = target: Dual specificity protein kinase CLK3 (Homo sapiens, UniProt P49761); assay: CLK3(CLK3LGY1) Takeda global kinase panel
[20] = target: Cyclin-dependent kinase 17 (Homo sapiens, UniProt Q00537); assay: PCTAIRE2(CD17SGS1) Takeda global kinase panel
[21] = target: Bromodomain-containing protein 4 (Homo sapiens, UniProt O60885); assay: BRD4(BRD4LGRC) Takeda global kinase panel
[22] = target: Ankyrin repeat and protein kinase domain-containing protein 1 (Homo sapiens, UniProt Q8NFD2); assay: SgK288(ANK1LGRL) Takeda global kinase panel
[23] = target: B1 bradykinin receptor (Homo sapiens) (UniProt P46663); conditions: Compound concentration 10.0 uM
Ephrin type-A receptor 6 = Ephrin type-A receptor 6 (Homo sapiens, UniProt Q9UF33); assay: EphA6(EPA6LGI5) Takeda global kinase panel
[24] = target: Microtubule-associated serine/threonine-protein kinase 1 (Homo sapiens, UniProt Q9Y2H9); assay: MAST1(MAS1LGE5) Takeda global kinase panel
[25] = target: D(1B) dopamine receptor (Homo sapiens) (UniProt P21918); assay: Dopamine D5 Eurofins-Panlabs radioligand binding assay; conditions: Compound concentration 10.0 uM
[26] = target: G protein-coupled receptor kinase 5 (Homo sapiens, UniProt P34947); assay: GRK5(GRK5LGP1) Takeda global kinase panel
[27] = target: Interleukin-1 receptor-associated kinase 4 (Homo sapiens, UniProt Q9NWZ3); assay: IRAK4(IRK4LGF1) Takeda global kinase panel
[28] = target: Serine/threonine-protein kinase ULK3 (Homo sapiens, UniProt Q6PHR2); assay: ULK3(ULK3LGF1) Takeda global kinase panel
[29] = target: Mitotic checkpoint serine/threonine-protein kinase BUB1 (Homo sapiens, UniProt O43683); assay: Bub1(BUB1LGRL) Takeda global kinase panel
[30] = target: Cyclin-dependent kinase 9 (Homo sapiens, UniProt P50750); assay: CDK9(CDK9CGS1) Takeda global kinase panel
[31] = target: Protein kinase C epsilon type (Homo sapiens, UniProt Q02156); assay: PKCepsilon(PRKELHY1) Takeda global kinase panel
[32] = target: Maternal embryonic leucine zipper kinase (Homo sapiens, UniProt Q14680); assay: MELK(MELKLGF1) Takeda global kinase panel
[33] = target: Tyrosine-protein kinase CSK (Homo sapiens, UniProt P41240); assay: CSK(CSK1LGF1) Takeda global kinase panel
[34] = target: Insulin-like growth factor 1 receptor (Homo sapiens, UniProt P08069); assay: IGF1R(IGF1LGF1) Takeda global kinase panel
[35] = target: Serine/threonine-protein kinase PAK 5 (Homo sapiens, UniProt Q9P286); assay: PAK5(PAK7LGF1) Takeda global kinase panel
eIF-2-alpha kinase GCN2 = eIF-2-alpha kinase GCN2 (Homo sapiens, UniProt Q9P2K8); assay: GCN2(EIK4PHK1) Takeda global kinase panel
[36] = target: Serine/threonine-protein kinase Chk1 (Homo sapiens, UniProt O14757); assay: CHK1(CHE1CGP1) Takeda global kinase panel
[37] = target: Serine/threonine-protein kinase ULK2 (Homo sapiens, UniProt Q8IYT8); assay: ULK2(ULK2LGY1) Takeda global kinase panel
[38] = target: Microtubule-associated serine/threonine-protein kinase 4 (Homo sapiens, UniProt O15021); assay: MAST4(MAS4LGRD) Takeda global kinase panel
Myosin-IIIb = Myosin-IIIb (Homo sapiens, UniProt Q8WXR4); assay: MYO3B(MY3BLGA1) Takeda global kinase panel
[39] = target: Serine/threonine-protein kinase Sgk2 (Homo sapiens, UniProt Q9HBY8); assay: SGK2(SGK2LGE5) Takeda global kinase panel

Chain of Mitogen-activated protein kinase 3 (P27361 whole entry, canonical isoform): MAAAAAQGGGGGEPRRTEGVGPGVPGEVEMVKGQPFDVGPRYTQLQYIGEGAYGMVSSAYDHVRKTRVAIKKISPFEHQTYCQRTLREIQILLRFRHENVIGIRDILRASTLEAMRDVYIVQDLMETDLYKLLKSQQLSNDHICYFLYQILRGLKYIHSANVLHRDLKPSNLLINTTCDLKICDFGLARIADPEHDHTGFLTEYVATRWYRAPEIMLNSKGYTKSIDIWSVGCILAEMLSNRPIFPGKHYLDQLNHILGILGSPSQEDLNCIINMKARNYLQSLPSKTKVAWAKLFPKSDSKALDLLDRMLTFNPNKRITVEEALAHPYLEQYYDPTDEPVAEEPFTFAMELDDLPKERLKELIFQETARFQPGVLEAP
Chain of Interleukin-1 receptor-associated kinase 4 (Q9NWZ3 whole entry): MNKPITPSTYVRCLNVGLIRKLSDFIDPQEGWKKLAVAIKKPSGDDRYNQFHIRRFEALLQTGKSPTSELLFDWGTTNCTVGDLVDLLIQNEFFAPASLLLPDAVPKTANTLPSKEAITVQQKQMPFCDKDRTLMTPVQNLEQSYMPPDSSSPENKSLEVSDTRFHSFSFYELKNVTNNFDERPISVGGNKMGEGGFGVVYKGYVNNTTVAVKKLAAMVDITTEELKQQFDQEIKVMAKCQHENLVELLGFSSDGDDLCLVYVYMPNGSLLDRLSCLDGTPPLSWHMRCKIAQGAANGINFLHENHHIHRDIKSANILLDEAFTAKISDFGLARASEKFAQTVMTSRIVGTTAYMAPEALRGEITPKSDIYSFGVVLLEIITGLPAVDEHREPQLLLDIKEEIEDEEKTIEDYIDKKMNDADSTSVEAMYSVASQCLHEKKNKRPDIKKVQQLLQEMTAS
Chain of Serine/threonine-protein kinase PAK 5 (Q9P286 whole entry): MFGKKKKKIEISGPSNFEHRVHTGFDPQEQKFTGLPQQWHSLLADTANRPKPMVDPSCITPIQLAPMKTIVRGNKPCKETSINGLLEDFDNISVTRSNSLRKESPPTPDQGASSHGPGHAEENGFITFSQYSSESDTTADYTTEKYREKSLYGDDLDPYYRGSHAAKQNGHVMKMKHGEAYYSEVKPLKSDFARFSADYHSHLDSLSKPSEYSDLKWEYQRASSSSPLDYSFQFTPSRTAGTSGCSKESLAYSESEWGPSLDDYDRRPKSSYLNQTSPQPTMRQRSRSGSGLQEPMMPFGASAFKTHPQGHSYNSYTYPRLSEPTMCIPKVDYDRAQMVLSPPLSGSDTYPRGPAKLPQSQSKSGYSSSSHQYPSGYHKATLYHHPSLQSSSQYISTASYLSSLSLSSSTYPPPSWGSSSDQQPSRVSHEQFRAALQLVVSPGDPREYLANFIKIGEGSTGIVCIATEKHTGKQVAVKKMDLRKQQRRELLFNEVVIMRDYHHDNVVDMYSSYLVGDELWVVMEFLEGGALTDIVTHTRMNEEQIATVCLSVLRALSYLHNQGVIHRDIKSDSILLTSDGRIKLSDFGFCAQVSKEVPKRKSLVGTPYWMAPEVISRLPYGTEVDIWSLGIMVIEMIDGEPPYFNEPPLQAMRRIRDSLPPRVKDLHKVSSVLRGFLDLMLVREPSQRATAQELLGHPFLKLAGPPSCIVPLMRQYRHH
Chain of Casein kinase I isoform alpha (P48729 whole entry, canonical isoform): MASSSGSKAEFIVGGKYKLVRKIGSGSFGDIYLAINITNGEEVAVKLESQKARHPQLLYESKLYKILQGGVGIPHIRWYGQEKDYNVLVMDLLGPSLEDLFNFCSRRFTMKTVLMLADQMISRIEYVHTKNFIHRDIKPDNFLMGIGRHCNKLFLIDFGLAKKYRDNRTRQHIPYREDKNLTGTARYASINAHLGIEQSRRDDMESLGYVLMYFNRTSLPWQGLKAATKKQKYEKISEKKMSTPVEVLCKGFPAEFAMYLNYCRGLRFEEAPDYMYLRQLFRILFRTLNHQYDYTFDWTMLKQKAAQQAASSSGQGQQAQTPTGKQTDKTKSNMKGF
Chain of Maternal embryonic leucine zipper kinase (Q14680 whole entry): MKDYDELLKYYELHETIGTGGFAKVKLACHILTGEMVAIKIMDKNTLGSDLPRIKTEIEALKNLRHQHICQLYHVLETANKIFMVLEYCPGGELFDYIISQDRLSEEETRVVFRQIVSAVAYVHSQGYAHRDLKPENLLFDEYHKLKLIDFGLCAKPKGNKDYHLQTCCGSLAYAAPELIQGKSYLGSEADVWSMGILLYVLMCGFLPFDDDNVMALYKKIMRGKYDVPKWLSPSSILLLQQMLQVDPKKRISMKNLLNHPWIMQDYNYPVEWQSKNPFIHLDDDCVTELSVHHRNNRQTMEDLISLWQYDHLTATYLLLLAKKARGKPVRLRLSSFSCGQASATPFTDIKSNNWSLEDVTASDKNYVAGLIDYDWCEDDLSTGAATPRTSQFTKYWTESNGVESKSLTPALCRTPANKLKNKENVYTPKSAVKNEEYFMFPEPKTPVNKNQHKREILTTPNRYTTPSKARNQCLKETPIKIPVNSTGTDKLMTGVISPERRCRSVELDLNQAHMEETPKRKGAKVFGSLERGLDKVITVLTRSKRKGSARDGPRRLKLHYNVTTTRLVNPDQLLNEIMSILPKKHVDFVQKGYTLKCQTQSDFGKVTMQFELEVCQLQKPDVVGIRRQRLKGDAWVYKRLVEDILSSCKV
Chain of Insulin-like growth factor 1 receptor (P08069 31-736 limits assumed): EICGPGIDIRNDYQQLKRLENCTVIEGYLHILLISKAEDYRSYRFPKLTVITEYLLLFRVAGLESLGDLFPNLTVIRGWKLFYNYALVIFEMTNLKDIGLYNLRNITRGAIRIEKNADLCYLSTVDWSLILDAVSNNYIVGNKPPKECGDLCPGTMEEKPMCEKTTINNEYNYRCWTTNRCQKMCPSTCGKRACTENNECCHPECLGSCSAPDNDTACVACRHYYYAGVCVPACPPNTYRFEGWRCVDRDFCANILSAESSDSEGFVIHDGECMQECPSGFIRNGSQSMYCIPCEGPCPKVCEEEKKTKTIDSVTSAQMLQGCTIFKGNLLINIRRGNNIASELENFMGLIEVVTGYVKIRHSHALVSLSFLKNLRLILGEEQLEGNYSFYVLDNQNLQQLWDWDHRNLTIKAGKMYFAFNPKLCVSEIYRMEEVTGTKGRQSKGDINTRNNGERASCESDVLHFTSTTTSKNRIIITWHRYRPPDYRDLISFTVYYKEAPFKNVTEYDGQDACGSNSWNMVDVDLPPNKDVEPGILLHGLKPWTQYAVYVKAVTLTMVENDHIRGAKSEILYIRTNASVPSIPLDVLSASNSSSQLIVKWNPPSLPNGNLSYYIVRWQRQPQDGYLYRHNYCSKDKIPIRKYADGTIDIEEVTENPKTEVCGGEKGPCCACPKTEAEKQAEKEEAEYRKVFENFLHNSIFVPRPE
Chain of Insulin-like growth factor 1 receptor (P08069 741-1367 limits assumed): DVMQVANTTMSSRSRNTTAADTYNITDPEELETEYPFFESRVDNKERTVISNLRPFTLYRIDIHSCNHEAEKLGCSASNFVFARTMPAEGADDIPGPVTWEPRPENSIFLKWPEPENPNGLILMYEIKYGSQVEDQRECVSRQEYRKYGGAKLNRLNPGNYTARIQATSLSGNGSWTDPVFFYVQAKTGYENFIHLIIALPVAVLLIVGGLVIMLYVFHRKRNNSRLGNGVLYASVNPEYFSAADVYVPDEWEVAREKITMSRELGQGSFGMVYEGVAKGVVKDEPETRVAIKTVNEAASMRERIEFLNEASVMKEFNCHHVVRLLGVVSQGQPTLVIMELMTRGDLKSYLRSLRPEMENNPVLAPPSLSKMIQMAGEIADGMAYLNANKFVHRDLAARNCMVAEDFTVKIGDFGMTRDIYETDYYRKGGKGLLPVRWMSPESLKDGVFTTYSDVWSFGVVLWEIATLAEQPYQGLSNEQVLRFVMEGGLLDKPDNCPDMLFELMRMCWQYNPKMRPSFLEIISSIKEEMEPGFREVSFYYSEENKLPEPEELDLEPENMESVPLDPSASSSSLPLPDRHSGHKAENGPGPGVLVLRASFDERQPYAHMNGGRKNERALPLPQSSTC
Chain of Cyclin-dependent kinase 17 (Q00537 whole entry): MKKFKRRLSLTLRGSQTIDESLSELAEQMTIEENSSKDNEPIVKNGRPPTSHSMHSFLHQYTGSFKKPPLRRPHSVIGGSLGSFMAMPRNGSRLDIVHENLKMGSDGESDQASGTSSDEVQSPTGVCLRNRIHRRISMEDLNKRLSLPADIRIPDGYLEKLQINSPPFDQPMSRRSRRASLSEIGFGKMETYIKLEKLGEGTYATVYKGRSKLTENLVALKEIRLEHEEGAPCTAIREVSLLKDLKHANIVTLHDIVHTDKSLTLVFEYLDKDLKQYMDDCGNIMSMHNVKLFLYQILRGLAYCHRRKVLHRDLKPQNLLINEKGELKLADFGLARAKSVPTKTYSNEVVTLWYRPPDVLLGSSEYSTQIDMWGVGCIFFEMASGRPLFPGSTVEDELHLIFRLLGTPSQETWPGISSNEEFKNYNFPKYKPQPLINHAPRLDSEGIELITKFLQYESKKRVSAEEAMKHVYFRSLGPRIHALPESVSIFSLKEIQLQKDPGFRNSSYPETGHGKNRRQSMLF
Chain of Dual specificity protein kinase CLK3 (P49761 whole entry): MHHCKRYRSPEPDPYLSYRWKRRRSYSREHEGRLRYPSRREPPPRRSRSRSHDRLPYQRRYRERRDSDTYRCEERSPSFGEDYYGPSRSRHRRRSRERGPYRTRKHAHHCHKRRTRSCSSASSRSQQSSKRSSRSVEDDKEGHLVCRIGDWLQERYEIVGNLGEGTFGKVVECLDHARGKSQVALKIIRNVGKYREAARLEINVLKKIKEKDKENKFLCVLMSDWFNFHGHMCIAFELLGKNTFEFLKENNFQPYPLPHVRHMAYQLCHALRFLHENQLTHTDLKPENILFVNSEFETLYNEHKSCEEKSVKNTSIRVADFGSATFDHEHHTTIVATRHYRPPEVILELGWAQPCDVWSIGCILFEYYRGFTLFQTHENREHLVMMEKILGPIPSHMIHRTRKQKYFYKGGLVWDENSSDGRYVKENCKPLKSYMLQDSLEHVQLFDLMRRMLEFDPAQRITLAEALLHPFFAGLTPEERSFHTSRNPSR

CN1C(=O)[C@@H](N2CCc3cn(Cc4ccccc4)nc3C2=O)COc2ccccc21 [TP-030-1]
IC50 [1]: 1000 nM | IC50 [2]: 1000 nM | IC50 [3]: 1000 nM | inhibition [4]: 0% | IC50 [5]: 1000 nM | IC50 [6]: 1000 nM | IC50 [7]: 1000 nM | IC50 (SRSF protein kinase 2): 1000 nM | IC50 [8]: 1000 nM | inhibition [9]: -1% | IC50 [10]: 1000 nM | IC50 [11]: 1000 nM | IC50 [12]: 1000 nM | IC50 [13]: 1000 nM | IC50 [14]: 1000 nM | IC50 [15]: 1000 nM | IC50 [16]: 1000 nM | IC50 [17]: 1000 nM | IC50 [18]: 1000 nM | IC50 [19]: 1000 nM | IC50 [20]: 1000 nM | IC50 [21]: 1000 nM | IC50 [22]: 1000 nM | inhibition [23]: 2% | IC50 (Ephrin type-A receptor 6): 1000 nM | IC50 [24]: 1000 nM | inhibition [25]: 3% | IC50 [26]: 1000 nM | IC50 [27]: 1000 nM | IC50 [28]: 1000 nM | IC50 [29]: 1000 nM | IC50 [30]: 1000 nM | IC50 [31]: 1000 nM | IC50 [32]: 1000 nM | IC50 [33]: 1000 nM | IC50 [34]: 1000 nM | IC50 [35]: 1000 nM | IC50 (eIF-2-alpha kinase GCN2): 1000 nM | IC50 [36]: 1000 nM | IC50 [37]: 1000 nM | IC50 [38]: 1000 nM | IC50 (Myosin-IIIb): 1000 nM | IC50 [39]: 1000 nM

CN1C(=O)[C@@H](N2CCc3cn(CC4CCS(=O)(=O)CC4)nc3C2=O)COc2ccccc21 [TP-030n]
IC50 [1]: 1000 nM | IC50 [2]: 1000 nM | IC50 [3]: 1000 nM | inhibition [4]: -6% | IC50 [5]: 1000 nM | IC50 [6]: 1000 nM | IC50 [7]: 1000 nM | IC50 (SRSF protein kinase 2): 1000 nM | IC50 [8]: 1000 nM | inhibition [9]: -7% | IC50 [10]: 1000 nM | IC50 [11]: 1000 nM | IC50 [12]: 1000 nM | IC50 [13]: 1000 nM | IC50 [14]: 1000 nM | IC50 [15]: 1000 nM | IC50 [16]: 1000 nM | IC50 [17]: 1000 nM | IC50 [18]: 1000 nM | IC50 [19]: 1000 nM | IC50 [20]: 1000 nM | IC50 [21]: 1000 nM | IC50 [22]: 1000 nM | inhibition [23]: 9% | IC50 (Ephrin type-A receptor 6): 1000 nM | IC50 [24]: 1000 nM | inhibition [25]: 3% | IC50 [26]: 1000 nM | IC50 [27]: 1000 nM | IC50 [28]: 1000 nM | IC50 [29]: 1000 nM | IC50 [30]: 1000 nM | IC50 [31]: 1000 nM | IC50 [32]: 1000 nM | IC50 [33]: 1000 nM | IC50 [34]: 1000 nM | IC50 [35]: 1000 nM | IC50 (eIF-2-alpha kinase GCN2): 1000 nM | IC50 [36]: 1000 nM | IC50 [37]: 1000 nM | IC50 [38]: 1000 nM | IC50 (Myosin-IIIb): 1000 nM | IC50 [39]: 1000 nM
